In assay [1] the target is intracellular GCN2 (phosphorylation of the GCN2 substrate eIF2α) (Homo sapiens, UniProt Q9P2K8). Briefly: GCN2 cellular inhibition assay (AlphaScreen SureFire P-eIF2α Ser51, borrelidin-treated U2OS cells). The assay is classed as cell-based. Conditions: compounds of Formula IV; biomarker assay, phosphorylated eIF2α Ser51 in borrelidin-treated U2OS cells. The gist of the method:
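U2OS cells adhered overnight, then treated with compounds (4-fold serial dilutions from 40 μM final) plus borrelidin 10 μM final for 1 h at 37 °C. Lysate eIF2α Ser51 phosphorylation measured by AlphaScreen SureFire. Percent inhibition calculated relative to borrelidin-only wells.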
In general terms: Bead proximity is the source of the signal in Alpha formats.

The next assay addresses GCN2 kinase (Homo sapiens, UniProt Q9P2K8). Briefly: GCN2 enzyme inhibition assay (Transcreener ADP2 fluorescence polarization). Conditions: Enzyme activity for compounds of Formula IV; Ki(app), 280 μM ATP, 25° C. Format: biochemical. The gist of the method: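 Run at 25 °C in 25 mM Tris-HCl pH 7.5, 50 mM NaCl, 10 mM MgCl2, 1 mM DTT with 4 nM GCN2, 280 μM ATP and 200 μM (RS)7 peptide; compound (0–8 μM final) preincubated 10 min, reaction 1 h. ADP read by antibody/tracer FP; IC50 and Ki(app) from tight-binding fit.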

The term IC50 denotes the concentration that inhibits the measured activity by half.

GCN2 kinase, sequence (Q9P2K8 whole entry): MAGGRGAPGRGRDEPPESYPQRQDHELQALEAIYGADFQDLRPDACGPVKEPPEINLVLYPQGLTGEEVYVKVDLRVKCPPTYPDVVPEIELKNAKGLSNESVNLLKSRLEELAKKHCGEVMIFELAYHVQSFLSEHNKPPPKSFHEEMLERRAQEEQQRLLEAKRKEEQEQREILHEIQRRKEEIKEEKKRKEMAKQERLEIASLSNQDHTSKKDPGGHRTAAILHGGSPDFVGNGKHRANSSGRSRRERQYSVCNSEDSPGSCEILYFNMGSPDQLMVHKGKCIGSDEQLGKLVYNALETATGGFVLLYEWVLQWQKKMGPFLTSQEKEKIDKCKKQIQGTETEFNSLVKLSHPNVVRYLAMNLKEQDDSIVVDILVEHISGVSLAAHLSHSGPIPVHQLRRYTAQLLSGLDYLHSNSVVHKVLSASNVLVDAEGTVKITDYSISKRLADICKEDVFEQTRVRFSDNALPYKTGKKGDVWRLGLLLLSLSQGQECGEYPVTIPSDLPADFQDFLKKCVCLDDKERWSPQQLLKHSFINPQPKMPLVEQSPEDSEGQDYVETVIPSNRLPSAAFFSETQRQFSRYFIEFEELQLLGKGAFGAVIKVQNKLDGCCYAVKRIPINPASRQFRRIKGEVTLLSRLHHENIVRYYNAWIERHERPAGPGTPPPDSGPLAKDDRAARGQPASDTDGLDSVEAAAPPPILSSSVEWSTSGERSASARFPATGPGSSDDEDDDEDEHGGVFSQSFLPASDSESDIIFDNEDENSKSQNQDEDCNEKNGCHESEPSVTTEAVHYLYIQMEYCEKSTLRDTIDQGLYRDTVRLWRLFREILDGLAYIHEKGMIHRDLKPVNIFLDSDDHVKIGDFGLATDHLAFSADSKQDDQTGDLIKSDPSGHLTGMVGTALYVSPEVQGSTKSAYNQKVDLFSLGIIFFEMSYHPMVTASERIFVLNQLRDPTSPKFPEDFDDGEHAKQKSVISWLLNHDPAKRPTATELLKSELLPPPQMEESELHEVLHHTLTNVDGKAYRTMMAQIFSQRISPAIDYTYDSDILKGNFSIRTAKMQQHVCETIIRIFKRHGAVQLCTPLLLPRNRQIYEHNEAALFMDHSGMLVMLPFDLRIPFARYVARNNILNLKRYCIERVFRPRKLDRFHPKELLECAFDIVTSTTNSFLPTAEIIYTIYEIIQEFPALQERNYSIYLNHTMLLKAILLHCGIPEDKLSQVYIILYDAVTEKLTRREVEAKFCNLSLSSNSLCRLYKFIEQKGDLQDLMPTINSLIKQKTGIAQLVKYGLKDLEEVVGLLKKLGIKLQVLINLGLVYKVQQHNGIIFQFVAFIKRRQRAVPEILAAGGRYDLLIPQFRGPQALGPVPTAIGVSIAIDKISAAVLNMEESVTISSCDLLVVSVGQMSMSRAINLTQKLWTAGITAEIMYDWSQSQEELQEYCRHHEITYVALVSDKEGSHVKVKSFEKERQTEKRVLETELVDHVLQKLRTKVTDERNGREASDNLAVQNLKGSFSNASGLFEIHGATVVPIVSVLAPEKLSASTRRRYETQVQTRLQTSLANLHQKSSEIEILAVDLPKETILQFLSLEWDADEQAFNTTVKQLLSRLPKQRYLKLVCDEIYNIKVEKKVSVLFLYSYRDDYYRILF
intracellular GCN2 (phosphorylation of the GCN2 substrate eIF2α), sequence (Q9P2K8 whole entry): as above

For `CP(C)(=O)C1CC(c2cn[nH]c2)CN(c2ccnc(-c3cnc4cnc(C(F)(F)F)cn34)n2)C1` (single isomer, unassigned) [IV-592, (5-(1H-Pyrazol-4-yl)-1-(2-(6-(trifluoromethyl)imidazo[1,2-a]pyrazin-3-yl)pyrimidin-4-yl)piperidin-3-yl)dimethylphosphine oxide], in assay [1], the IC50 was above 5000 nM. The Ki at GCN2 kinase is below 10 nM.

In assay [1], `CC1C(C(N)=O)CCN1c1ccnc(-c2cnc3cnc(C(F)(F)F)cn23)n1` (single isomer, unassigned) [IV-614, 2-Methyl-1-(2-(6-(trifluoromethyl)imidazo[1,2-a]pyrazin-3-yl)pyrimidin-4-yl)pyrrolidine-3-carboxamide] returned a half-inhibitory concentration (IC50) above 5000 nM. Moreover, the Ki on GCN2 kinase lay in the range of 100 to 1000 nM.

`CC1C(C(N)=O)CCN1c1ccnc(-c2cnc3cnc(C(F)(F)F)cn23)n1` (single isomer, unassigned) [IV-615, 2-Methyl-1-(2-(6-(trifluoromethyl)imidazo[1,2-a]pyrazin-3-yl)pyrimidin-4-yl)pyrrolidine-3-carboxamide]: in assay [1], the IC50 lay in the range of 500 to 5000 nM. The Ki on GCN2 kinase is 10 to 100 nM.

In the case of `OC1CCN(c2ccnc(-c3cnc4cnc(C(F)(F)F)cn34)n2)CC1c1cn[nH]c1` (single isomer, unassigned) [IV-621, 3-(1H-Pyrazol-4-yl)-1-(2-(6-(trifluoromethyl)imidazo[1,2-a]pyrazin-3-yl)pyrimidin-4-yl)piperidin-4-ol], the IC50 in assay [1] was 500 to 5000 nM. The same molecule gave a Ki on GCN2 kinase below 10 nM.

`OC1CCN(c2ccnc(-c3cnc4cnc(C(F)(F)F)cn34)n2)CC1c1cn[nH]c1` (single isomer, unassigned) [IV-622, 3-(1H-Pyrazol-4-yl)-1-(2-(6-(trifluoromethyl)imidazo[1,2-a]pyrazin-3-yl)pyrimidin-4-yl)piperidin-4-ol]: the IC50 in assay [1] fell in the range of 500 to 5000 nM. On GCN2 kinase, this molecule returned a Ki below 10 nM.

In turn, `OC1CCN(c2ccnc(-c3cnc4cnc(C(F)(F)F)cn34)n2)CC1c1cn[nH]c1` (single isomer, unassigned) [IV-623, 3-(1H-Pyrazol-4-yl)-1-(2-(6-(trifluoromethyl)imidazo[1,2-a]pyrazin-3-yl)pyrimidin-4-yl)piperidin-4-ol] showed a half-inhibitory concentration (IC50) in assay [1] below 500 nM. The Ki at GCN2 kinase is below 10 nM.

In turn, `OC1CCN(c2ccnc(-c3cnc4cnc(C(F)(F)F)cn34)n2)CC1c1cn[nH]c1` (single isomer, unassigned) [IV-624, 3-(1H-Pyrazol-4-yl)-1-(2-(6-(trifluoromethyl)imidazo[1,2-a]pyrazin-3-yl)pyrimidin-4-yl)piperidin-4-ol] returned an IC50 in assay [1] of 500 to 5000 nM. This molecule displayed a Ki at GCN2 kinase of 10 to 100 nM.

For the molecule `FC(F)(F)c1cn2c(-c3nccc(N4CCC(c5c[nH]nc5C(F)(F)F)C4)n3)cnc2cn1` (single isomer, unassigned) [IV-628, 6-(Trifluoromethyl)-3-(4-(3-(3-(trifluoromethyl)-1H-pyrazol-4-yl)pyrrolidin-1-yl)pyrimidin-2-yl)imidazo[1,2-a]pyrazine], the IC50 in assay [1] lay within 500 to 5000 nM. Moreover, the Ki at GCN2 kinase was 10 to 100 nM.

On to `FC(F)(F)c1cn2c(-c3nccc(N4CCC(c5c[nH]nc5C(F)(F)F)C4)n3)cnc2cn1` (single isomer, unassigned) [IV-629, 6-(Trifluoromethyl)-3-(4-(3-(3-(trifluoromethyl)-1H-pyrazol-4-yl)pyrrolidin-1-yl)pyrimidin-2-yl)imidazo[1,2-a]pyrazine], for which, in assay [1], the half-inhibitory concentration (IC50) lay in the range of 500 to 5000 nM. The Ki at GCN2 kinase was below 10 nM.

In assay [1], `CP(C)(=O)C1CC(c2cn[nH]c2)CN(c2ccnc(-c3cnc4cnc(C(F)(F)F)cn34)n2)C1` (single isomer, unassigned) [IV-632, (5-(1H-Pyrazol-4-yl)-1-(2-(6-(trifluoromethyl)imidazo[1,2-a]pyrazin-3-yl)pyrimidin-4-yl)piperidin-3-yl)dimethylphosphine oxide] gave a half-inhibitory concentration (IC50) above 5000 nM. At GCN2 kinase, this molecule had a Ki of 10 to 100 nM.

For `CP(C)(=O)C1CC(c2cn[nH]c2)CN(c2ccnc(-c3cnc4cnc(C(F)(F)F)cn34)n2)C1` (single isomer, unassigned) [IV-633, (5-(1H-Pyrazol-4-yl)-1-(2-(6-(trifluoromethyl)imidazo[1,2-a]pyrazin-3-yl)pyrimidin-4-yl)piperidin-3-yl)dimethylphosphine oxide], in assay [1], the IC50 was above 5000 nM. The same molecule had a Ki at GCN2 kinase of 10 to 100 nM.

`CC1C(c2cn[nH]c2)N(CCO)C(C)CN1c1ccnc(-c2cnc3cnc(C(F)(F)F)cn23)n1` (single isomer, unassigned) [IV-636, 2-(3,6-Dimethyl-2-(1H-pyrazol-4-yl)-4-(2-(6-(trifluoromethyl)imidazo[1,2-a]pyrazin-3-yl)pyrimidin-4-yl)piperazin-1-yl)ethan-1-ol] yielded a 50% inhibitory concentration (IC50) in assay [1] of 500 to 5000 nM. At GCN2 kinase, the Ki is below 10 nM.

As to `CC1CN(c2ccnc(-c3cnc4cnc(C(F)(F)F)cn34)n2)C(C)C(c2c[nH]cn2)O1` (single isomer, unassigned) [IV-638, 2-(1H-Imidazol-4-yl)-3,6-dimethyl-4-(2-(6-(trifluoromethyl)imidazo[1,2-a]pyrazin-3-yl)pyrimidin-4-yl)morpholine], the half-maximal inhibitory concentration (IC50) in assay [1] is above 5000 nM. The Ki on GCN2 kinase fell in the range of 100 to 1000 nM.

`CC1CN(c2ccnc(-c3cnc4cnc(C(F)(F)F)cn34)n2)C(C)C(c2c[nH]cn2)O1` (single isomer, unassigned) [IV-639, 2-(1H-Imidazol-4-yl)-3,6-dimethyl-4-(2-(6-(trifluoromethyl)imidazo[1,2-a]pyrazin-3-yl)pyrimidin-4-yl)morpholine] returned a concentration for half-maximal inhibition (IC50) in assay [1] below 500 nM. At GCN2 kinase, this molecule showed a Ki below 10 nM.

As to `CC1CN(c2cncc(-c3cnc4cnc(C(F)(F)F)cn34)n2)C(C)C(c2cn[nH]c2)N1` (single isomer, unassigned) [IV-649, 3-(6-(2,5-Dimethyl-3-(1H-pyrazol-4-yl)piperazin-1-yl)pyrazin-2-yl)-6-(trifluoromethyl)imidazo[1,2-a]pyrazine], the IC50 in assay [1] is above 5000 nM. Besides, the Ki on GCN2 kinase lay in the range of 100 to 1000 nM.

`CC1CN(c2cncc(-c3cnc4cnc(C(F)(F)F)cn34)n2)C(C)C(c2cn[nH]c2)N1` (single isomer, unassigned) [IV-650, 3-(6-(2,5-Dimethyl-3-(1H-pyrazol-4-yl)piperazin-1-yl)pyrazin-2-yl)-6-(trifluoromethyl)imidazo[1,2-a]pyrazine] returned an IC50 in assay [1] of 500 to 5000 nM. The same molecule displayed a Ki on GCN2 kinase below 10 nM.

In assay [1], `CC1CN(c2ccnc(-c3cnc4cnc(C(F)(F)F)cn34)n2)CC(c2cn[nH]c2Cl)N1` (single isomer, unassigned) [IV-651, 3-[4-[3-(5-Chloro-1H-pyrazol-4-yl)-5-methyl-piperazin-1-yl]pyrimidin-2-yl]-6-(trifluoromethyl)imidazo[1,2-a]pyrazine] had an IC50 below 500 nM. Also, the Ki at GCN2 kinase was below 10 nM.

In assay [1], `CC1CN(c2ccnc(-c3cnc4cnc(C(F)(F)F)cn34)n2)CC(c2cn[nH]c2Cl)N1` (single isomer, unassigned) [IV-652, 3-[4-[3-(5-Chloro-1H-pyrazol-4-yl)-5-methyl-piperazin-1-yl]pyrimidin-2-yl]-6-(trifluoromethyl)imidazo[1,2-a]pyrazine] came in with an IC50 of 500 to 5000 nM. On GCN2 kinase, the Ki is 10 to 100 nM.

In turn, `Cc1cc(N2CC(C)NC(c3cn[nH]c3)C2C)nc(-c2cnc3cnc(C(F)(F)F)cn23)n1` (single isomer, unassigned) [IV-669, 3-(4-(2,5-Dimethyl-3-(1H-pyrazol-4-yl)piperazin-1-yl)-6-methylpyrimidin-2-yl)-6-(trifluoromethyl)imidazo[1,2-a]pyrazine] returned a half-maximal inhibitory concentration (IC50) in assay [1] above 5000 nM. The molecule also showed a Ki at GCN2 kinase of 100 to 1000 nM.

The record behind these values is patent US10988477B2 (Merck Patent GmbH, priority 2018, dated 2021).
